Experimental findings from patent publication US12161616B2, “Combination therapy comprising an omega-3 fatty acid, a folate species and a vitamin B12 species” (Oxford University Innovation Limited, priority 2014, dated 2024) are described below.

The experiment deals with brain atrophy rate in patients with a diagnosis of MCI. Put plainly: VITACOG trial: whole brain atrophy per year from MRI scans (SIENA). In kind it is in vivo, human. Particulars: for BAR (brain atrophy rate): entire study group. How it is done:
This study was conducted as a part of the VITACOG trial, ‘Homocysteine and B vitamins in cognitive impairment’, and was carried out according to the principles of the Declaration of Helsinki and received approval of the Oxfordshire NHS research ethics committee A (COREC 04/Q1604/100). All participants gave their written informed consent. The study protocol and participants, along with inclusion and exclusion criteria, have been described in detail elsewhere (Smith et al, PLOS One 2010; 5 (9); e12244.doi10.1371/journal.pone. 0012244). In short, 646 patients above 70 years of age with a diagnosis of MCI were assessed for eligibility. After randomization of eligible subjects, and some withdrawals, 133 started treatment with TrioBe Plus® (0.8 mg folic acid, 0.5 mg vitamin B12, and 20 mg vitamin B6, specifically 0.8 mg folic acid, 0.5 mg cyanocobalamin and 20 mg pyridoxine HCl) while 133 received placebo for a duration of 24 months. Participants were only included in this study if brain atrophy data was available.
The MRI protocol used in the VITACOG study has been described in detail elsewhere (Smith et al referenced above). In short, baseline and follow-up volumetric cranial MRI scans were carried out at the Oxford Centre for Clinical Magnetic Resonance Research using a 1.5 T MRI system (Sonata; Siemens Medical Solutions, Erlangen, Germany). Whole brain atrophy per year was estimated from MR images taken at baseline and follow-up, using the fully automated SIENA protocol which provides accuracy and robustness. Normalized brain volume at baseline was estimated from a single image using a cross-sectional method (SIENAX), and used as a covariate in the statistical analyses.
IBM SPSS for Windows, version 20, was used for all statistical analyses (IBM Corp., Armonk, NY, USA). Skewed fatty acids were normalized using their natural logarithms. Unless otherwise stated, fatty acid concentrations at baseline were used for statistical analyses. The main outcome in this study was to investigate the effect of B vitamin treatment on brain atrophy rates, based on baseline omega-3 fatty acid status. Analyses of variance, were used to further examine associations between the fatty acid variables and tHcy and brain atrophy. Two correction models were used. Model A was adjusted for age, sex, and initial brain volume, while model B also adjusted for plasma tHcy, ApoE status, education level, and baseline levels of diastolic blood pressure, triglyceride concentration, and creatinine concentration. When the entire study population was included in the analysis, tHcy measured at follow-up was used as covariate since this measure most likely represents the average tHcy during the trial. When the analysis was confined to the placebo group, tHcy at baseline was used.
Differences between atrophy rate in the placebo and B vitamin groups were assessed using Student's t test, while brain atrophy rates according to different levels of fatty acids (tertiles), were analyzed using ANCOVA. Where an ANCOVA indicated significant differences between tertiles, Bonferroni corrected post hoc comparisons were made between the lowest and the two higher tertiles. […] P<0.05 was considered statistically significant in all analyses.

Setting [1] is: HIGH tHcy at follow-up, middle baseline tertile, Model A.
The mark [2] stands for this setting: HIGH tHcy at follow-up, middle baseline tertile, Model B.
The mark [3] stands for this setting: HIGH tHcy at follow-up, top baseline tertile, Model A.
The mark [4] stands for this setting: HIGH tHcy at follow-up, top baseline tertile, Model B.
The mark [5] stands for this setting: LOW tHcy at follow-up, middle baseline tertile, Model A.
Where [6] appears, read: LOW tHcy at follow-up, middle baseline tertile, Model B.
The mark [7] stands for this setting: LOW tHcy at follow-up, top baseline tertile, Model A.
Setting [8] is: LOW tHcy at follow-up, top baseline tertile, Model B.
Where [9] appears, read: HIGH tHcy at follow-up, lowest baseline tertile (DHA <245 μM, EPA <136 μM), Model A.
Where [10] appears, read: HIGH tHcy at follow-up, lowest baseline tertile (DHA <245 μM, EPA <136 μM), Model B.
Setting [11] is: HIGH tHcy at follow-up, middle baseline tertile (DHA 245-345 μM, EPA 136-222 μM), Model A.
Where [12] appears, read: HIGH tHcy at follow-up, middle baseline tertile (DHA 245-345 μM, EPA 136-222 μM), Model B.
Setting [13] is: HIGH tHcy at follow-up, top baseline tertile (DHA >345 μM, EPA >222 μM), Model A.
The mark [14] stands for this setting: HIGH tHcy at follow-up, top baseline tertile (DHA >345 μM, EPA >222 μM), Model B.
Setting [15] is: LOW tHcy at follow-up, lowest baseline tertile (DHA <245 μM, EPA <136 μM), Model A.
Setting [16] is: LOW tHcy at follow-up, lowest baseline tertile (DHA <245 μM, EPA <136 μM), Model B.
Where [17] appears, read: LOW tHcy at follow-up, middle baseline tertile (DHA 245-345 μM, EPA 136-222 μM), Model A.
The mark [18] stands for this setting: LOW tHcy at follow-up, middle baseline tertile (DHA 245-345 μM, EPA 136-222 μM), Model B.
[19] abbreviates: LOW tHcy at follow-up, top baseline tertile (DHA >345 μM, EPA >222 μM), Model A.
The mark [20] stands for this setting: LOW tHcy at follow-up, top baseline tertile (DHA >345 μM, EPA >222 μM), Model B.

For the molecule `CC/C=C\C/C=C\C/C=C\C/C=C\C/C=C\CCCC(=O)O` [20:5n-3 (EPA), Eicosapentaenoic acid], the “Percent change of BAR compared to the lowest fatty acid tertile” value (“Percent change of BAR” below) under setting [1] was 18%; the “Percent change of BAR” value under setting [2] was 11%; the “Percent change of BAR” value under setting [3] is 9.5%; the “Percent change of BAR” value under setting [4] stood at 4.3%; the “Percent change of BAR” value under setting [5] is recorded as −30%; the “Percent change of BAR” value under setting [6] was −27%. The “Percent change of BAR” value under setting [7] is −33% and the “Percent change of BAR” value under setting [8] is given as −40%. For the same molecule, the “BAR (brain atrophy rate)” value runs as follows: under setting [9], 1.02 percent brain whole brain reduction per year; under setting [10], 0.98 percent brain whole brain reduction per year; under setting [11], 1.19 percent brain whole brain reduction per year; under setting [12], 1.20 percent brain whole brain reduction per year; under setting [13], 1.11 percent brain whole brain reduction per year; under setting [14], 1.13 percent brain whole brain reduction per year. Further, the “BAR (brain atrophy rate)” value is given as 1.07 percent brain whole brain reduction per year under setting [15]; 1.14 percent brain whole brain reduction per year under setting [16]; 0.73 percent brain whole brain reduction per year under setting [17]; 0.76 percent brain whole brain reduction per year under setting [18]; 0.69 percent brain whole brain reduction per year under setting [19]; 0.63 percent brain whole brain reduction per year under setting [20].
As to `CC/C=C\C/C=C\C/C=C\C/C=C\C/C=C\C/C=C\CCC(=O)O` [22:6n-3 (DHA), Docosahexaenoic acid], the “Percent change of BAR” value reads like this: under setting [1], 7.7%; under setting [2], 5.7%; under setting [3], 8.6%; under setting [4], 0.4%; under setting [5], −34%; under setting [6], −36%. The “Percent change of BAR” value is, setting by setting: under setting [7], −37%; under setting [8], −43%. Further, the “BAR (brain atrophy rate)” value reads like this: under setting [9], 1.08 percent brain whole brain reduction per year; under setting [10], 1.06 percent brain whole brain reduction per year; under setting [11], 1.12 percent brain whole brain reduction per year; under setting [12], 1.14 percent brain whole brain reduction per year; under setting [13], 1.13 percent brain whole brain reduction per year; under setting [14], 1.08 percent brain whole brain reduction per year. The “BAR (brain atrophy rate)” value is listed as 1.09 percent brain whole brain reduction per year under setting [15]; 1.20 percent brain whole brain reduction per year under setting [16]; 0.71 percent brain whole brain reduction per year under setting [17]; 0.70 percent brain whole brain reduction per year under setting [18]; 0.68 percent brain whole brain reduction per year under setting [19]; 0.62 percent brain whole brain reduction per year under setting [20].
